The text below walks through data of publication PMC7539012, “Hyperphosphorylated tau aggregation and cytotoxicity modulators screen identified prescription drugs linked to Alzheimer's disease and cognitive functions” (Scientific Reports, 2020).

Structures can show the parent of a compound that is named as a salt.

For one assay, the system named is T1, 1N4R p-tau.
T1 construct: made in house; host or cells: E. coli (PIMAX system)
Description: p-tau aggregation modulator screen of 1280-compound library (ThS fluorescence net change over 16 h).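 Also: 30 µM compound with 6 µM p-tau over 16 h.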 It is filed as biochemical.
Details: not given
Take `C/C(=C(/CCO)SSCC1CCCO1)N(C=O)Cc1cnc(C)nc1N.Cl` (stereo not shown) [Fursultiamine Hydrochloride]: the ThS net change was 360.

In turn, `COc1ccc2c3c1O[C@H]1C[C@@H](O)C=C[C@@]31CCN(C)C2` [Galanthamine hydrobromide] yielded a ThS net change of 448.

`CCC1(c2ccc(N)cc2)CCC(=O)NC1=O` (stereo not shown) [Glutethimide, para-amino]: the ThS net change was 340.

Staying with this assay, now noted: 1280-compound library screen; ThS fluorescence net change over 16 h.
In turn, `Cl.O=C1OC(CN2CCOCC2)CN1/N=C/c1ccc([N+](=O)[O-])o1` (stereo not shown) [Furaltadone hydrochloride] returned a ThS net change of 385.

`Nc1nc(O)c2ncn(COC(CO)CO)c2n1` [Ganciclovir] came in with a ThS net change of 404.

`COc1cc2ncnc(Nc3ccc(F)c(Cl)c3)c2cc1OCCCN1CCOCC1` [Gefitinib] registered a ThS net change of 395.

In turn, `Cl.O=C(OCC(O)CO)c1ccccc1Nc1ccnc2cc(Cl)ccc12` (stereo not shown) [Glafenine hydrochloride] showed a ThS net change of 412.

Regarding `COc1ccc(Cl)cc1C(=O)NCCc1ccc(S(=O)(=O)NC(=O)NC2CCCCC2)cc1` [Glibenclamide], the ThS net change was 391.

Consider `Cc1ccc(S(=O)(=O)NC(=O)NN2CC3CCCC3C2)cc1` (stereo not shown) [Gliclazide], for which the ThS net change is 379.

As to `C[N+]1(C)CCC(OC(=O)C(O)(c2ccccc2)C2CCCC2)C1` (stereo not shown) [Glycopyrrolate], the ThS net change is on record as 401.

`CN1C2CCCC1CC(NC(=O)c1nn(C)c3ccccc13)C2` (stereo not shown) [Granisetron] showed a ThS net change of 399.

The compound `COc1ccccc1O` [Guaiacol] registered a ThS net change of 397.

The same assay, now with this note: 1280-compound library screen; […].
As to `C#C[C@]1(O)CC[C@H]2[C@@H]3CCC4=CC(=O)CCC4=C3C=C[C@@]21CC` [Gestrinone], the ThS net change turned out to be 397.

The assay is the same for the next values; noted with them: library screen, ThS fluorescence net change over 16 h with p-tau.
In turn, `CCOC(=O)c1ccc(OC(=O)CCCCCNC(=N)N)cc1.CS(=O)(=O)O` [Gabexate mesilate] returned a ThS net change of 305.

The assay is the same for the next values; noted with them: p-tau aggregation modulator screen of 1280-compound library; ThS fluorescence net change.
Take `NS(=O)(=O)c1cc(C(=O)O)c(NCc2ccco2)cc1Cl` [Furosemide]: the ThS net change was 360.

With `CC[N+](CC)(CC)CCOc1cccc(OCC[N+](CC)(CC)CC)c1OCC[N+](CC)(CC)CC` [Gallamine triethiodide], the ThS net change is 363.

Consider `Cc1ccc(C)c(OCCCC(C)(C)C(=O)O)c1` [Gemfibrozil], for which the ThS net change is 353.

The compound `Cc1cnc(C(=O)NCCc2ccc(S(=O)(=O)NC(=O)NC3CCCCC3)cc2)cn1` [Glipizide] returned a ThS net change of 371.

`COC1=CC(=O)C[C@@H](C)[C@]12Oc1c(Cl)c(OC)cc(OC)c1C2=O` [Griseofulvin] had a ThS net change of 337.

The same assay, now with this note: p-tau aggregation modulator screen of 1280-compound library; […].
In the case of `NCC1(CC(=O)O)CCCCC1` [Gabapentin], the ThS net change was found to be 363.

Still in this assay, the particulars now being: p-tau aggregation modulator screen of the compound library, ThS fluorescence net change.
`C[C@]12CC[C@@H]3c4ccc(O)cc4C[C@@H](CCCCCCCCC[S+]([O-])CCCC(F)(F)C(F)(F)F)[C@H]3[C@@H]1CC[C@@H]2O` (stereo partly shown) [Fulvestrant] showed a ThS net change of 442.

With `O=C1OCCN1/N=C/c1ccc([N+](=O)[O-])o1` [Furazolidone], the ThS net change came to 415.

For the compound `CC(=O)O[C@H]1C[C@@]2(C)[C@@H](C[C@@H](O)[C@H]3[C@@]4(C)CC[C@@H](O)[C@@H](C)[C@@H]4CC[C@@]32C)/C1=C(\CCC=C(C)C)C(=O)O` [Fusidic acid sodium salt], the ThS net change was 438.

For `Cl.Cl.Fc1ccc(C(OCCN2CCN(CCCc3ccccc3)CC2)c2ccc(F)cc2)cc1` [GBR 12909 dihydrochloride], the ThS net change is recorded as 515.

In the case of `COc1c(N2CCNC(C)C2)c(F)cc2c(=O)c(C(=O)O)cn(C3CC3)c12` (stereo not shown) [Gatifloxacin], the ThS net change is 426.

`Nc1ccn([C@@H]2O[C@H](CO)[C@@H](O)C2(F)F)c(=O)n1` [Gemcitabine] gave a ThS net change of 470.

For the compound `CCC1=C(C)CN(C(=O)NCCc2ccc(S(=O)(=O)NC(=O)N[C@H]3CC[C@H](C)CC3)cc2)C1=O` [Glimepiride], the ThS net change stood at 415.

In turn, `COc1ccc2c(c1)C(=O)N(CCc1ccc(S(=O)(=O)NC(=O)NC3CCCCC3)cc1)C(=O)C2(C)C` [Gliquidone] showed a ThS net change of 492.
